Tests used:
[1] = test system: subjects with schizophrenia who were current smokers; test: MCCB composite score in current smokers by COMT allele type, Clinical Study A; format: in vivo, human; details: for MCCB Change from Baseline to Final Mean(SD) / MCCB Between-group Difference (Pooled SD) / MCCB Effect Size (Raw mean): current smokers
Description: Analysis of the data by cigarette smoking status (current smoker or current nonsmoker) indicated a significant […] interaction (p=0.015).
A blood sample for genotyping was collected from each subject who consented. Genomic DNA was isolated from whole blood using the FlexiGene DNA AGF3000 kit (Qiagen, Valencia, Calif.), on an AutogenFlex 3000 (AutoGen, Holliston, Mass.). Genotypes were determined using the Pyrosequencing detection method (USA—Qiagen, Inc., Valencia, Calif.). Individuals performing the genotyping were blinded to clinical trial data. The significance of the minor allele against the major allele is shown in column marked “Treatment genotype p-value” (Tables 6 and 7).
The SNPs analyzed were RS6269, RS4633, RS4680, and RS4818. The treatment effects across all 4 SNPs in the minor allele indicated a dose-response relationship. The magnitude of the effect for the Compound A 25 mg treatment group was as low as +1.8 points on the MCCB composite score for SNP4680 (corresponding to a Coen's d effect size of 0.43) to as high as +3.7 points for SNP RS4818 (corresponding to a Coen's d effect size of 0.93). […] In fact, the treatment response for both Compound A active treatment groups was generally less than that of placebo for subjects containing the major COMT allele.

[2] = test system: clinically stable subjects with schizophrenia; test: CANTAB cognition battery, Clinical Study A; format: in vivo, human; details: 10 mg and 25 mg dose groups
From the text: The primary endpoint was the MCCB composite score, and the primary endpoint analysis was the change on the MCCB composite score from baseline to endpoint versus placebo. Other secondary measures included the MCCB domains, the NSA-16, the CANTAB cognition battery (measured at different time points from the MCCB), and the UPSA-2. The Positive and Negative Syndrome Scale (PANSS) was included to document stability in schizophrenia symptomatology.
The Cambridge Neuropsychological Test Automated Battery (CANTAB) is a computer-based cognitive assessment system consisting of a battery of neuropsychological tests, administered to subjects using a touch screen computer. […] The CANTAB computerized system will be employed to explore the effects of Compound A on cognition. The tests assess the following cognitive domains: executive function, spatial memory, attention and episodic memory. The CANTAB battery took approximately 40 minutes to administer and was given on Days 14, 28, 56, 84 and 98.

[3] = RS4633 T/T or C/T (minor allele), 25 mg vs placebo
[4] = RS4818 G/C or G/G (minor allele), 10 mg vs placebo
[5] = RS6269 G/G or A/G (minor allele), 10 mg vs placebo
[6] = RS6269 G/G or A/G (minor allele), 25 mg vs placebo

c1ccc(-c2nnc(O[C@@H]3C4CC5C[C@H]3C[N@](C5)C4)s2)cc1 [Compound A, (4s)-4-(5-phenyl-1,3,4-thiadiazol-2-yloxy)-1-azatricyclo[3.3.1.1^3,7]decane]
treatment effect on MCCB composite score ([1]; current smokers who contained the major allele for the 4 COMT SNPs): No treatment effect
MCCB Change from Baseline to Final Mean(SD) ([1]; RS4633 C/C (major allele), 25 mg): 0.4(3.9)
MCCB Between-group Difference (Pooled SD) ([1]; RS4633 C/C (major allele), 25 mg vs placebo): −1.1(5.0)
MCCB Change from Baseline to Final Mean(SD) ([1]; RS4633 T/T or C/T (minor allele), 10 mg): −0.3(4.4)
MCCB Between-group Difference (Pooled SD) ([1]; RS4633 T/T or C/T (minor allele), 10 mg vs placebo): −1.2(4.2)
MCCB Change from Baseline to Final Mean(SD) ([1]; RS4633 T/T or C/T (minor allele), 25 mg): 2.9(4.8)
MCCB Between-group Difference (Pooled SD) [1, 3]: 2.0(4.5)
MCCB Effect Size (Raw mean) [1, 3]: 0.44
MCCB Change from Baseline to Final Mean(SD) ([1]; RS4680 A/A or G/A (minor allele), 10 mg): 0.1(4.6)
MCCB Between-group Difference (Pooled SD) ([1]; RS4680 A/A or G/A (minor allele), 10 mg vs placebo): −1.0(4.1)
MCCB Change from Baseline to Final Mean(SD) ([1]; RS4680 A/A or G/A (minor allele), 25 mg): 2.9(4.8)
MCCB Effect Size (Raw mean) ([1]; RS4680 A/A or G/A (minor allele), 25 mg vs placebo): 0.43
MCCB Change from Baseline to Final Mean(SD) ([1]; RS4680 G/G (major allele), 25 mg): 0.4(3.9)
MCCB Between-group Difference (Pooled SD) ([1]; RS4680 G/G (major allele), 25 mg vs placebo): −0.9(5.3)
MCCB Change from Baseline to Final Mean(SD) ([1]; RS4818 C/C (major allele), 25 mg): 1.2(4.6)
MCCB Between-group Difference (Pooled SD) ([1]; RS4818 C/C (major allele), 25 mg vs placebo): −1.0(4.9)
MCCB Change from Baseline to Final Mean(SD) ([1]; RS4818 G/C or G/G (minor allele), 10 mg): 1.7(3.7)
MCCB Between-group Difference (Pooled SD) [1, 4]: 2.1(3.6)
MCCB Effect Size (Raw mean) [1, 4]: 0.58
MCCB Change from Baseline to Final Mean(SD) ([1]; RS4818 G/C or G/G (minor allele), 25 mg): 3.4(4.4)
MCCB Effect Size (Raw mean) ([1]; RS4818 G/C or G/G (minor allele), 25 mg vs placebo): 0.93
MCCB Change from Baseline to Final Mean(SD) ([1]; RS6269 A/A (major allele), 25 mg): 0.8(4.6)
MCCB Between-group Difference (Pooled SD) ([1]; RS6269 A/A (major allele), 25 mg vs placebo): −1.0(3.9)
MCCB Change from Baseline to Final Mean(SD) ([1]; RS6269 G/G or A/G (minor allele), 10 mg): 2.9(4.2)
MCCB Between-group Difference (Pooled SD) [1, 5]: 1.8(5.0)
MCCB Effect Size (Raw mean) [1, 5]: 0.36
MCCB Change from Baseline to Final Mean(SD) ([1]; RS6269 G/G or A/G (minor allele), 25 mg): 3.1(4.4)
MCCB Between-group Difference (Pooled SD) [1, 6]: 2.0(5.1)
MCCB Effect Size (Raw mean) [1, 6]: 0.40
results on the CANTAB battery relative to MCCB results [2]: consistent

Source: US20130317056A1, “NEURONAL NICOTINIC AGONISTS AND METHODS OF CORRELATING COMT SNPS” (ABBVIE INC., priority 2012, published 2013)
